Measurements from ChEMBL document CHEMBL5029147 (J Med Chem, 2021).
Calls of active or inactive are those of the source. The calls are words filed in the database; no cut-off is given here.

Experiments:
[1] = Drug uptake in human MCF7 cells at 0.2 to 1 uM measured after 24 hrs by HPLC-MS/MS-MRM analysis; assay type: ADME, cell-based; conditions: mcf7, 24 h, dose 0.2-1 µM
MCF7 [2] = test: Effect on BCRP expression in human MCF7 cells at 0.5 to 1 uM incubated for 24 hrs by western blot analysis; assay type: functional, cell-based; conditions: dose 0.5-1 µM
[3] = Drug uptake in human HepG2 cells at 1 to 2 uM measured after 24 hrs in presence of photoCORM delivered CO by LC-MS/MS-MRM analysis; assay type: ADME, cell-based; conditions: hepg2, 24 h, dose 1-2 µM
[4] = Drug uptake in human MCF7 cells at 1 uM measured after 24 hrs in presence of 100 uM photoCORM delivered CO by LC-MS/MS-MRM analysis; assay type: ADME, cell-based; conditions: mcf7, 24 h
HepG2 = test: Cytotoxicity against human HepG2 cells assessed as reduction in cell viability incubated for 24 hrs in presence of chloramphenicol by MTT assay; assay type: functional, cell-based
[5] = Drug uptake in human MCF7 cells at 1 uM measured after 24 hrs in presence of 20 uM chloramphenicol by LC-MS/MS-MRM analysis; assay type: ADME, cell-based; conditions: mcf7, 24 h
[6] = Drug metabolism in human MDA-MB-231 cells assessed as intracellular hydroxy-PTX metabolite formation measured after 24 hrs by LC-MS/MS-MRM analysis; assay type: ADME, cell-based; conditions: mda-mb-231, 24 h
MDA-MB-231 [7] = test: Cytotoxicity against human MDA-MB-231 cells assessed as reduction in cell viability at < 0.5 uM incubated for 24 hrs in presence of 20 uM chloramphenicol by MTT assay; assay type: functional, cell-based; conditions: dose microM <0.5, time 24.0 hrs
MDA-MB-231 [8] = test: Cytotoxicity against human MDA-MB-231 cells assessed as reduction in cell viability incubated for 24 hrs in presence of chloramphenicol by MTT assay; assay type: functional, cell-based
[9] = Drug uptake in human MCF7 cells at 1 uM measured after 24 hrs in presence of 50 to 100 uM photoCORM delivered CO by LC-MS/MS-MRM analysis; assay type: ADME, cell-based; conditions: mcf7, 24 h
[10] = Drug metabolism in human MCF7 cells assessed as decline in intracellular hydroxy-PTX metabolite level at 1 uM measured after 24 hrs in presence of 50 to 100 uM photoCORM delivered CO by LC-MS/MS-MRM analysis; assay type: ADME, cell-based; conditions: mcf7, 24 h
[11] = Drug metabolism in human MCF7 cells assessed as intracellular hydroxy-PTX metabolite formation at 1 uM measured after 24 hrs by LC-MS/MS-MRM analysis; assay type: ADME, cell-based; conditions: mcf7, 24 h
MCF7 [12] = test: Effect on CYP2C8 expression in human MCF7 cells at 0.5 to 1 uM incubated for 24 hrs by western blot analysis; assay type: functional, cell-based; conditions: dose 0.5-1 µM
[13] = Drug metabolism in human MCF7 cells assessed as intracellular hydroxy-PTX metabolite formation at 0.2 to 1 uM measured after 24 hrs by HPLC-MS/MS-MRM analysis; assay type: ADME, cell-based; conditions: mcf7, 24 h, dose 0.2-1 µM

CC(=O)O[C@H]1C(=O)[C@@]2(C)[C@H]([C@H](OC(=O)c3ccccc3)[C@]3(O)C[C@H](OC(=O)[C@H](O)[C@@H](NC(=O)c4ccccc4)c4ccccc4)C(C)=C1C3(C)C)[C@]1(OC(C)=O)CO[C@@H]1C[C@@H]2O [PACLITAXEL]
Drug uptake [1]: Active
Activity (MCF7 [2]): inactive
Drug uptake [3]: Active
Drug uptake [4]: Not Active
Activity (HepG2): Active
Drug uptake [5]: Not Active
Drug metabolism [6]: Metabolite_Notdetected
Activity (MDA-MB-231 [7]): Active
Activity (MDA-MB-231 [8]): Active
Drug uptake [9]: Not Active
Drug metabolism [10]: Metabolite_Notdetected
Drug metabolism [11]: 1 fmol/µg
Activity (MCF7 [12]): inactive
Drug metabolism [13]: Metabolite_Detected
